# Experiments:
# M5123 hepatoma [1] = test: Subcutaneous tumor assay, M5123 hepatoma implanted s.c. in Buffalo strain rats; type: in vivo, rat; details: for Final Tumor Size Day 15 / Percent Test/Control: 500 μg analog/inj.; for Final Tumor Size Day 15: mean ± S.D.; for Percent Test/Control: day 15
# From the text: (§1) The M5123 hepatoma cells, obtained from Dr. H. P. Morris at the National Cancer Institute, were induced in the Buffalo strain of rats by ingestion of N-(2-fluorenylphthalamic acid) and established in serial transplantation. Implantation of the M5123 hepatoma cells in an immunodeficient athymic mouse or Buffalo strain rat reproducibly results in a progressively growing, lethal tumor.
# (§2) To determine the growth inhibitory effect of bombesin analogs on hepatoma cells, two in vivo assay systems, the subcutaneous tumor assay in the syngeneic Buffalo strain rat and the subrenal capsule assay using the immunodeficient athymic nude mouse were employed.
# In the subcutaneous assay, tumor grafts are implanted subcutaneously and treatment can be initiated at any selected time after the implantation.
# In this assay, 20 male Buffalo strain rats were implanted s.c., right flank, with a 2 mm^3 mince of the M5123 hepatoma in the a.m. of day zero. The animals were individually identified and then randomized 10 rats in the control and 5 rats per test group. […] Tumor sizes were determined with Vernier calipers twice weekly and size calculated as the average of two diameters (length+width/2) mm.
# M5123 hepatoma [2] = test: Subrenal capsule assay (SRCA), M5123 rat hepatoma xenografts in athymic female mice; type: in vivo, mouse; details: s.c., b.i.d., q.d. 1-9; for Change in Tumor Size between day 0 and day 10: mean ± s.e.m.
# From the text: as §1, §2
# SRCA was designed as a rapid in vivo method for testing chemotherapeutic agents against tumor xenografts prepared from solid malignancies. As an antitumor screening procedure, tumors, both human and murine, can be tested as xenografts in athymic female mice. For detailed description of this assay, see Bogden, A. E. et al. A rapid screening method for testing chemotherapeutic agents against human tumor xenografts. In: Proc. Symp. Use of Athymic (Nude) Mice in Cancer Research, p. 231, Edited by Houchens et al., Gustav Fisher, N.Y. (1978).
# Further, an in situ determination of tumor xenograft size at time of implantation and again at termination of the assay, permits use of the very simple parameter of change in tumor size for evaluating tumor sensitivity to the analog. Since the initial measurement provides each xenograft with its own baseline for evaluating drug effects, one can measure tumor response to drugs in terms of progression, stabilization, partial remission and complete remission, which are parameters that have clinical relevance.
# In this assay, xenografts prepared from the transplantation-established M5123 hepatoma were first implanted in immunodeficient athymic female mice, followed by treatment with BIM-23014, in assays of 10-day duration. Thirty two athymic female mice were implanted under the renal capsule with 1 mm cubed grafts of the M5123 rat hepatoma on day zero. Treatment with the analog was initiated on day one at 500, 250 and 50 μg per injection, s.c., b.i.d., on a q.d. 1-9 schedule. On day 10, the mice were sacrificed, the kidney was removed and the size of the tumor was measured to determine changes in tumor size between day 0 and day 10.
# More specifically, the size of the tumor was measured in situ by means of a stereoscope, which was fitted with an ocular micrometer calibrated in ocular units (OMU, 10 OMU=1 mm). For each tumor, two perpendicular diameters were measured and the difference in mean tumor diameter over the 10-day period was calculated.
# [3] = Body weight change (systemic toxicity) in the subcutaneous assay; type: in vivo, rat; details: for Final Body Weight/Initial Body Weight ratio: q.d. 0-15 (control 1.15)
# Description: In this assay, 20 male Buffalo strain rats were implanted s.c., right flank, with a 2 mm^3 mince of the M5123 hepatoma in the a.m. of day zero. The animals were individually identified and then randomized 10 rats in the control and 5 rats per test group. An somatostatin analog used in the invention, H-D-β-Nal-Cys-Tyr-D-Trp-Lys-Val-Cys-Thr-NH2 (code name: BIM-23014), was administered b.i.d. Monday through Friday, and as a single total daily dose on Saturday and Sunday. Tumor sizes were determined with Vernier calipers twice weekly and size calculated as the average of two diameters (length+width/2) mm.
# Since neoplasms maintain autonomous growth by autocrine and paracrine growth factors, the importance of attaining therapeutic concentrations of an antigrowth factor such as BIM-23014 at the tumor site is emphasized in this study. […] Control Final Body Weight/Initial Body Weight ratio was 1.15, as compared to 1.06 for group 2 and 1.12 for group 3.
compound,measurement,setting,value
"CC(C)[C@@H]1NC(=O)[C@H](CCCCN)NC(=O)[C@@H](Cc2c[nH]c3ccccc23)NC(=O)[C@H](Cc2ccc(O)cc2)NC(=O)[C@@H](NC(=O)[C@H](N)Cc2ccc3ccccc3c2)CSSC[C@@H](C(=O)N[C@H](C(N)=O)[C@@H](C)O)NC1=O [BIM-23014, H-D-β-Nal-Cys-Tyr-D-Trp-Lys-Val-Cys-Thr-NH2]",Final Tumor Size Day 15,"M5123 hepatoma [1]; s.c. infusion (perilesional) b.i.d., q.d. 0-15",10.2 ± 5.6 mm
same,Percent Test/Control,"M5123 hepatoma [1]; s.c. infusion b.i.d., q.d. 0-15",62%
same,Final Tumor Size Day 15,"M5123 hepatoma [1]; s.c., b.i.d., q.d. 0-15 (flank opposite from tumor)",16.8 ± 2.4 mm
same,Percent Test/Control,"M5123 hepatoma [1]; s.c., b.i.d., q.d. 0-15",102%
same,Tumor inhibitory effect (in words),"M5123 hepatoma [1]; s.c. on the flank opposite from the tumor, 500 μg/inj.",no tumor inhibitory effects
same,Growth of the M5123 hepatoma (in words),"M5123 hepatoma [1]; s.c. perilesional infusion, 500 μg/inj., p<0.01",significantly inhibited
same,% Test/Control,M5123 hepatoma [2]; 50 μg analog/inj.,93%
same,Change in Tumor Size between day 0 and day 10,M5123 hepatoma [2]; 50 μg analog/inj.,37.00 ± 1.80 omu
same,Inhibition (antitumor activity),M5123 hepatoma [2]; 50 μg,7%
same,% Test/Control,M5123 hepatoma [2]; 250 μg analog/inj.,77%
same,Change in Tumor Size between day 0 and day 10,M5123 hepatoma [2]; 250 μg analog/inj.,30.56 ± 3.61 omu
same,Reduction in the growth of the tumor,M5123 hepatoma [2]; 250 μg/injection,about 25%
same,% Test/Control,M5123 hepatoma [2]; 500 μg analog/inj.,84%
same,Change in Tumor Size between day 0 and day 10,M5123 hepatoma [2]; 500 μg analog/inj.,33.38 ± 2.19 omu
same,Inhibition (antitumor activity),M5123 hepatoma [2]; 500 μg,16%
same,Systemic toxic effects from treatment as indicated by body weight loss (in words),"[3]; 500 μg/inj., b.i.d., q.d. 0-15",no evidence of systemic toxic effects
same,Final Body Weight/Initial Body Weight ratio,"[3]; group 2: 500 μg/inj., s.c., b.i.d.",1.06
same,Final Body Weight/Initial Body Weight ratio,"[3]; group 3: 500 μg/inj., s.c. infusion b.i.d.",1.12

# Reference: patent publication US5411943A, “Hepatoma treatment with somatostatin analogs” (Biomeasure, Inc., priority 1992, dated 1995)
